Measured values reported in patent publication US12576099B2, “Ribose-modified cap analog and use thereof” (Beijing Youcare Kechuang Pharmaceutical Technology Co., Ltd., priority 2024, dated 2026).

Experiments:
T7 RNA polymerase [1] = target: T1, T7 RNA polymerase (Escherichia phage T7, UniProt P00573); test: Capping rate of mRNA transcription initiated by cap analogs (LC-MS); assay type: biochemical; settings: for Capping rate: LC-MS of mRNA 5′ fragment
Procedure: (§1) During the experiment, the volume of materials required for the system was first calculated, and then sample addition was conducted. The system was first added with sterile enzyme-free water, followed by the sequential addition of 10× buffer, NTPs, and cap analogs, mixed well, and gently centrifuged. Nuclease inhibitors, inorganic pyrophosphatase, T7RNA polymerase, and linearized DNA templates were then added thereto. The system was mixed well, gently centrifuged, and incubated at 37° C. After 2 hours of incubation, the system was added with 1 U of DNase I and incubated at 37° C. for another 30 minutes. The mRNA precipitate was then washed with 75% ethanol, and after the ethanol was briefly evaporated to dryness, the mRNA was redissolved in sterile enzyme-free water. • (3) The transcription product was purified, and the in vitro transcription yield of mRNA was recorded. • (4) The obtained mRNA was subjected to an annealing reaction with a probe.
The annealing reaction was performed in a PCR instrument: 95° C. for 5 minutes; 65° C. for 2 minutes; 55° C. for 2 minutes; 40° C. for 2 minutes; 22° C. for 2 minutes. • (5) Magnetic bead pretreatment and probe binding: 100 μL of magnetic beads was placed on a magnetic frame for pretreatment. The magnetic bead solution was added with 120 μL of sample and incubated at room temperature for 30 minutes with slow mixing. • (6) mRNA splicing and obtaining the mRNA 5′ single-strand sequence bound to the probe
The mixture was added with 20 μL of RNase H (5 U/μL) and incubated at 37° C. for 3 hours with mixing every half hour. After incubation, the magnetic beads were washed and then added with 100 μL of 75% methanol heated to 80° C. The mixture was heated to 80° C. on a heating plate, held for 3 minutes, then placed on a magnetic frame to aspirate the supernatant, and dried at room temperature for 45 minutes to a volume of 10 μL using a centrifugal evaporator. The sample was then resuspended in 50 μL of 100 μM EDTA/1% MeOH and ready for LC-MS analysis to determine the capping of RNA in the transcription reaction. Since there is a significant difference in molecular weight between capped and uncapped bases, the capping rate of mRNA transcription initiated by different cap analogs can be determined based on the difference in molecular mass.

HEK293T cells = test: Translation efficiency of different capped luciferase mRNAs; assay type: cell-based; settings: for Relative fluorescence intensity: HEK293T, 0.5 μg mRNA per well, 24 hours, proportional to translation efficiency; for Multiple of m6A (relative fluorescence intensity): relative to m6A
Summary of the method: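 HEK293T cells were transfected with 0.5 μg capped luciferase mRNA per well (Lipofectamine MessengerMAX) and cultured 24 h at 37 °C. Lysates were mixed with Dual-Lumi II reagent for 5 min at about 25 °C; luminescence served as the measure of translation efficiency.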

DCP2 enzyme = target: T2, DCP2 enzyme (Schizosaccharomyces pombe, UniProt O13828); test: Decapping enzyme stability test; assay type: biochemical; settings: for Decapping rate (%) of DCP2 enzyme: 50 U mRNA decapping enzyme, 37° C., 45 minutes
T2 construct: purchased New England Biolabs
T2 sequence (O13828 1-243 limits assumed): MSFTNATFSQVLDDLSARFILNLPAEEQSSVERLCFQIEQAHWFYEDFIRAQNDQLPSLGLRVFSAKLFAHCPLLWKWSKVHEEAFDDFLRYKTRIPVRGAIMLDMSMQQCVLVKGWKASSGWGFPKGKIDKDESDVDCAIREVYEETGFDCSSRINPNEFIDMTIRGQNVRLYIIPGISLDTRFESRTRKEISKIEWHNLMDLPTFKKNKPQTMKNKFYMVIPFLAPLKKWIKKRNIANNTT
T2 sequence (Q9P805 1-127 partner): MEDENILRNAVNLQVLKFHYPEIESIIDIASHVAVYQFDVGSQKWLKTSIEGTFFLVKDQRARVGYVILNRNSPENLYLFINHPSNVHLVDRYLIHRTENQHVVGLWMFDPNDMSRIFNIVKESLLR
T2 sequence (Q10108 155-180 partner limits assumed): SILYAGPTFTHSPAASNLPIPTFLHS
Summary of the method: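 PAGE-purified RNA ([…]) incubated with 50 U mRNA decapping enzyme in 1×MDE buffer at 37° C. for 45 minutes. Products resolved by PAGE, SYBR Green II stained; decapping rate derived from capped-to-decapped band intensity ratio.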

T7 RNA polymerase [2] = target: T1, T7 RNA polymerase; test: In vitro transcription yield of mRNA using cap analogs; assay type: biochemical; settings: for Yield per unit template: in vitro transcription, 1 μg DNA template, 37° C., 2 hours
Procedure: • (1) Capping synthesis using cap analogs
The plasmid was first linearized with plasmid linearizing enzyme, and then the linearized plasmid was purified. • (2) In vitro transcription and synthesis of mRNA
as §1

T1 sequence (P00573 whole entry, the tested form may be a part): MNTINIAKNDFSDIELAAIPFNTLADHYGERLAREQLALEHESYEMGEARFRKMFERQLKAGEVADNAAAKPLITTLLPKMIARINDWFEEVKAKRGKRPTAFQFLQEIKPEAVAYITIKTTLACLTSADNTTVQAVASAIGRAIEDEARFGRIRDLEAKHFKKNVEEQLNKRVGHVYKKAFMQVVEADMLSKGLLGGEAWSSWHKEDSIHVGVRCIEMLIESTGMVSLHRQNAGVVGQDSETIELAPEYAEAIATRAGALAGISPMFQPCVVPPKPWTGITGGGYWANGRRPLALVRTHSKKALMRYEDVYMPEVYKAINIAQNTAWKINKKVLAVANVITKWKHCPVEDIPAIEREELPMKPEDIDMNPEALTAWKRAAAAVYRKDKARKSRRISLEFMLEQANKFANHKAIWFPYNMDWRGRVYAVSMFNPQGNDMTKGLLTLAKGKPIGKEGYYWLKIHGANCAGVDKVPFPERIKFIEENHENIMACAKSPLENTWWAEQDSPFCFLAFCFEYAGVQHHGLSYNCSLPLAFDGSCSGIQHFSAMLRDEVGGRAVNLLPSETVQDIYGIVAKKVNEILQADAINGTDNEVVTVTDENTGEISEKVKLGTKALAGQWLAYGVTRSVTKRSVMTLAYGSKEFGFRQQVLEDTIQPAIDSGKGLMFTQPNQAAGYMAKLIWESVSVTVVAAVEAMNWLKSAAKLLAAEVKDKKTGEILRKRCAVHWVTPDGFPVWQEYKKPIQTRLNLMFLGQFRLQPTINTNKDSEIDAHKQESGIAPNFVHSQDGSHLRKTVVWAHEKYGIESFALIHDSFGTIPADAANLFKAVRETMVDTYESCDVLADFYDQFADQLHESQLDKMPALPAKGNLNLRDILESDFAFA

Row | Structure (SMILES) | Capping rate (T7 RNA polymerase [1]) | Increase relative to 5227 (capping rate) (T7 RNA polymerase [1]) | Relative fluorescence intensity (HEK293T cells) | Multiple of m6A (relative fluorescence intensity) (HEK293T cells) | Decapping rate (%) of DCP2 enzyme (DCP2 enzyme) | Decrease relative to N-7113 (decapping rate) (DCP2 enzyme) | Yield per unit template (T7 RNA polymerase [2]) | Increase relative to 5227 (in vitro transcription yield) (T7 RNA polymerase [2]) | also measured
1 | CCN(CC)C(=O)[C@H]1[C@@H](O)[C@H]([n+]2cn(C)c3c(=O)[nH]c(N)nc32)O[C@@H]1COP(=O)(O)OP(=O)(O)OP(=O)(O)OC[C@H]1O[C@@H](n2cnc3c(N)ncnc32)[C@H](OC)[C@@H]1OP(=O)(O)OC[C@H]1O[C@@H](n2cnc3c(=O)[nH]c(N)nc32)[C@H](O)[C@@H]1O [YK-CAP-111] | 98.1% | 36.4% | 2.12 | 5.6 | 11.5% | 32.3% | 173.5 µg | 29.3% | Capping rate, times that of YK-CAP-101 (T7 RNA polymerase [1]; relative to YK-CAP-101): 2.3 times; Capping rate, times that of YK-CAP-102 (T7 RNA polymerase [1]; relative to YK-CAP-102): 3.2 times; Capping rate, times that of YK-CAP-103 (T7 RNA polymerase [1]; relative to YK-CAP-103): 1.4 times; Capping rate, times that of YK-CAP-104 (T7 RNA polymerase [1]; relative to YK-CAP-104): 1.3 times; Capping rate, times that of YK-CAP-105 (T7 RNA polymerase [1]; relative to YK-CAP-105): 1.4 times; Capping rate higher than that of compound 14 (T7 RNA polymerase [1]; relative to compound 14): 25.3%; Relative fluorescence intensity, times that of HN3002 (HEK293T cells; relative to HN3002): 1.9 times; Relative fluorescence intensity, times that of N-7113 (HEK293T cells; relative to N-7113): 2.1 times; Relative fluorescence intensity (translation efficiency), times that of YK-CAP-101 (HEK293T cells; relative to YK-CAP-101): 9.6 times; Relative fluorescence intensity, times that of YK-CAP-102 (HEK293T cells; relative to YK-CAP-102): 6.2 times; Relative fluorescence intensity, times that of YK-CAP-103 (HEK293T cells; relative to YK-CAP-103): 2.8 times; Relative fluorescence intensity, times that of YK-CAP-104 (HEK293T cells; relative to YK-CAP-104): 2.6 times; Relative fluorescence intensity, times that of YK-CAP-105 (HEK293T cells; relative to YK-CAP-105): 2.9 times; Relative fluorescence intensity, times that of compound 14 (HEK293T cells; relative to compound 14): 1.9 times; Transcription yield, times that of YK-CAP-101 (T7 RNA polymerase [2]; relative to YK-CAP-101): 5.3 times; Transcription yield, times that of YK-CAP-102 (T7 RNA polymerase [2]; relative to YK-CAP-102): 3.9 times; Transcription yield, times that of YK-CAP-103 (T7 RNA polymerase [2]; relative to YK-CAP-103): 2.0 times; Transcription yield, times that of YK-CAP-104 (T7 RNA polymerase [2]; relative to YK-CAP-104): 2.4 times; Transcription yield, times that of YK-CAP-105 (T7 RNA polymerase [2]; relative to YK-CAP-105): 2.1 times; In vitro transcription yield of mRNA higher than that of compound 14 (T7 RNA polymerase [2]; relative to compound 14): 40.8%
2 | COC[C@@H]1[C@H](OP(=O)(O)OC[C@H]2O[C@@H](n3cnc4c(=O)[nH]c(N)nc43)[C@H](O)[C@@H]2O)[C@@H](COP(=O)(O)OP(=O)(O)OP(=O)(O)OC[C@H]2O[C@@H]([n+]3cn(C)c4c(=O)[nH]c(N)nc43)[C@H](O)[C@@H]2O)O[C@H]1n1cnc2c(N)ncnc21 [YK-CAP-113] | 95.2% | 32.4% | 1.63 | 4.3 | 15.3% | 28.5% | 166.1 µg | 23.8% | –
3 | COC[C@]1(COP(=O)(O)OP(=O)(O)OP(=O)(O)OC[C@H]2O[C@@H](n3cnc4c(N)ncnc43)[C@H](OC)[C@@H]2OP(=O)(O)OC[C@H]2O[C@@H](n3cnc4c(=O)[nH]c(N)nc43)[C@H](O)[C@@H]2O)O[C@@H]([n+]2cn(C)c3c(=O)[nH]c(N)nc32)[C@H](O)[C@@H]1O [YK-CAP-117] | 95.1% | 32.3% | 1.82 | 4.8 | 9.8% | 34.0% | 153.2 µg | 14.2% | Decapping rate lower than that of HN3002 (DCP2 enzyme; relative to HN3002): 13.5%; Decapping rate lower than that of YK-CAP-101 (DCP2 enzyme; relative to YK-CAP-101): 22.6%; Decapping rate lower than that of YK-CAP-102 (DCP2 enzyme; relative to YK-CAP-102): 31.4%; Decapping rate lower than that of YK-CAP-103 (DCP2 enzyme; relative to YK-CAP-103): 26.7%; Decapping rate lower than that of YK-CAP-104 (DCP2 enzyme; relative to YK-CAP-104): 36.3%; Decapping rate lower than that of YK-CAP-105 (DCP2 enzyme; relative to YK-CAP-105): 24.1%; Decapping rate lower than that of compound 14 (DCP2 enzyme; relative to compound 14): 17.0%; Decapping rate lower than that of m6A (DCP2 enzyme; relative to m6A): 24.0%
4 | CO[C@@H]1[C@H](OP(=O)(O)OC[C@H]2O[C@@H](n3cnc4c(=O)[nH]c(N)nc43)[C@H](O)[C@@H]2O)[C@@H](COP(=O)(O)OP(=O)(O)OP(=O)(O)OC[C@@]2(CF)O[C@@H]([n+]3cn(C)c4c(=O)[nH]c(N)nc43)[C@H](O)[C@@H]2O)O[C@H]1n1cnc2c(N)ncnc21 [YK-CAP-118] | 97.2% | 35.2% | 1.65 | 4.3 | 11.9% | 31.9% | 172.2 µg | 28.3% | –
5 | CO[C@@H]1[C@H](OP(=O)(O)OC[C@H]2O[C@@H](n3cnc4c(=O)[nH]c(N)nc43)[C@H](O)[C@@H]2O)[C@@H](COP(=O)(O)OP(=O)(O)OP(=O)(O)OC[C@@]2(C(F)F)O[C@@H]([n+]3cn(C)c4c(=O)[nH]c(N)nc43)[C@H](O)[C@@H]2O)O[C@H]1n1cnc2c(N)ncnc21 [YK-CAP-119] | 96.3% | 33.9% | 1.45 | 3.8 | 11.4% | 32.4% | 154.2 µg | 14.9% | –
6 | CO[C@@H]1[C@H](OP(=O)(O)OC[C@H]2O[C@@H](n3cnc4c(=O)[nH]c(N)nc43)[C@H](O)[C@@H]2O)[C@@H](COP(=O)(O)OP(=O)(O)OP(=O)(O)OC[C@@]2(OC)O[C@@H]([n+]3cn(C)c4c(=O)[nH]c(N)nc43)[C@H](O)[C@@H]2O)O[C@H]1n1cnc2c(N)ncnc21 [compound 5227, reference compound] | 71.9% | 0% | 0.82 | 2.2 | 23.2% | 20.6% | 134.2 µg | 0% | –
